# Biological target: GST-Bcl-2 (Homo sapiens (Human), UniProt P10415)
# Assay: Time Resolved-Fluorescence Resonance Energy Transfer (TR-FRET) Bcl-2 binding assay
# Conditions: GST-Bcl-2 1 nM, F-Bak peptide probe 100 nM, Tb-anti-GST antibody 1 nM; Ki by Wang's equation
# In short: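 Ki values derived from TR-FRET displacement of F-Bak peptide from GST-Bcl-2, detected with Tb-labelled anti-GST antibody (ex 340, em 520/495 nm). Compound dilution series started at 50 μM (2× starting concentration); room-temperature incubation 3 hours.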
# GST-Bcl-2, sequence (P10415 whole entry): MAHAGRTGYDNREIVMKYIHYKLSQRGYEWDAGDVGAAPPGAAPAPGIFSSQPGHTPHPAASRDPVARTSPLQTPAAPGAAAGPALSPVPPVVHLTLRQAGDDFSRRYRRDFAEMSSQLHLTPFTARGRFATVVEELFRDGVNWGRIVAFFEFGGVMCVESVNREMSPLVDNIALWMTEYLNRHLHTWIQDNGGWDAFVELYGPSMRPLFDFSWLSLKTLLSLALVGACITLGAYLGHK
row,Compound,Ki
1,"CN(C)CCCNc1ccc(S(=O)(=O)NC(=O)c2ccc(N3CCN(Cc4ccccc4-c4ccc(Cl)cc4)CC3)cc2Oc2cccc(Cl)c2)cc1[N+](=O)[O-] [Example 14, 4-(4-((4′-chloro-1,1′-biphenyl-2-yl)methyl)piperazin-1-yl)-2-(3-chlorophenoxy)-N-((4-((3-(dimethylamino)propyl)amino)-3-nitrophenyl)sulfonyl)benzamide]",0.079 nM
2,"Cc1cc2cc(Oc3cc(N4CCN(CC5=C(c6ccc(Cl)cc6)CC(C)(C)CC5)CC4)ccc3C(=O)NS(=O)(=O)c3ccc(NC4CCN(C)CC4)c([N+](=O)[O-])c3)ccc2[nH]1 [Example 3, 4-(4-((2-(4-chlorophenyl)-4,4-dimethylcyclohex-1-en-1-yl)methyl)piperazin-1-yl)-2-((2-methyl-1H-indol-5-yl)oxy)-N-((4-((1-methylpiperidin-4-yl)amino)-3-nitrophenyl)sulfonyl)benzamide]",0.827 nM
3,"O=C(NS(=O)(=O)c1ccc(NCCCN2CCOCC2)c([N+](=O)[O-])c1)c1ccc(N2CCN(Cc3ccccc3-c3ccc(Cl)cc3)CC2)cc1Oc1ccc(-c2ccncc2)cc1 [Example 99, 4-(4-((4′-chloro-1,1′-biphenyl-2-yl)methyl)piperazin-1-yl)-N-((4-((3-morpholin-4-ylpropyl)amino)-3-nitrophenyl)sulfonyl)-2-(4-pyridin-4-ylphenoxy)benzamide]",71.4 nM
4,"CC1(C)CCC(CN2CCN(c3ccc(C(=O)NS(=O)(=O)c4ccc(NCC5CN(C(CF)CF)CCO5)c([N+](=O)[O-])c4)c(Oc4cnc(N)c(Cl)c4)c3)CC2)=C(c2ccc(Cl)cc2)C1 (centres unmarked) [Example 378, 2-[(6-amino-5-chloropyridin-3-yl)oxy]-4-(4-{[2-(4-chlorophenyl)-4,4-dimethylcyclohex-1-en-1-yl]methyl}piperazin-1-yl)-N-({4-[({4-[2-fluoro-1-(fluoromethyl)ethyl]morpholin-2-yl}methyl)amino]-3-nitrophenyl}sulfonyl)benzamide]",< 0.01 nM
5,"CC1(C)CC(c2ccc(Cl)cc2)=C(CN2CCN(c3ccc(C(=O)NS(=O)(=O)c4cnc(OCC5(F)CCOCC5)c(Cl)c4)c(Oc4cc5cc[nH]c5cc4F)c3)CC2)CO1 [Example 388, N-({5-chloro-6-[(4-fluorotetrahydro-2H-pyran-4-yl)methoxy]pyridin-3-yl}sulfonyl)-4-(4-{[4-(4-chlorophenyl)-6,6-dimethyl-5,6-dihydro-2H-pyran-3-yl]methyl}piperazin-1-yl)-2-[(6-fluoro-1H-indol-5-yl)oxy]benzamide]",0.02 nM
6,"Cc1cc(Oc2cc(N3CCN(CC4=C(c5ccc(Cl)cc5)CC(C)(C)CC4)CC3)ccc2C(=O)NS(=O)(=O)c2ccc(NCC3CCOCC3)c([N+](=O)[O-])c2)cnc1N [Example 362, 2-[(6-amino-5-methylpyridin-3-yl)oxy]-4-(4-{[2-(4-chlorophenyl)-4,4-dimethylcyclohex-1-en-1-yl]methyl}piperazin-1-yl)-N-({3-nitro-4-[(tetrahydro-2H-pyran-4-ylmethyl)amino]phenyl}sulfonyl)benzamide]",0.033 nM
7,"CC1(C)CCC(CN2CCN(c3ccc(C(=O)NS(=O)(=O)c4cnc(OCC5(F)CCN(CC(F)F)CC5)c(Cl)c4)c(Oc4cnc(N)c(Cl)c4)c3)CC2)=C(c2ccc(Cl)cc2)C1 [Example 403, 2-[(6-amino-5-chloropyridin-3-yl)oxy]-N-[(5-chloro-6-{[1-(2,2-difluoroethyl)-4-fluoropiperidin-4-yl]methoxy}pyridin-3-yl)sulfonyl]-4-(4-{[2-(4-chlorophenyl)-4,4-dimethylcyclohex-1-en-1-yl]methyl}piperazin-1-yl)benzamide]",2.14 nM
8,"CN1CCC(Nc2ccc(S(=O)(=O)NC(=O)c3ccc(N4CCN(CC5=C(c6ccc(Cl)cc6)CC(C)(C)CC5)CC4)cc3Oc3cnc(N)c(Cl)c3)cc2S(=O)(=O)C(F)(F)F)CC1 [Example 354, 2-[(6-amino-5-chloropyridin-3-yl)oxy]-4-(4-{[2-(4-chlorophenyl)-4,4-dimethylcyclohex-1-en-1-yl]methyl}piperazin-1-yl)-N-({4-[(1-methylpiperidin-4-yl)amino]-3-[(trifluoromethyl)sulfonyl]phenyl}sulfonyl)benzamide]",0.114 nM
9,"CC(C)(C)OC(=O)N1CCN(c2ccc(Oc3cc(N4CCN(Cc5ccccc5-c5ccc(Cl)cc5)CC4)ccc3C(=O)NS(=O)(=O)c3ccc(NCCCN4CCOCC4)c([N+](=O)[O-])c3)cc2)CC1 [Example 97, tert-butyl 4-(4-(5-(4-((4′-chloro-1,1′-biphenyl-2-yl)methyl)piperazin-1-yl)-2-((((4-((3-morpholin-4-ylpropyl)amino)-3-nitrophenyl)sulfonyl)amino)carbonyl)phenoxy)phenyl)piperazine-1-carboxylate]",147 nM
10,"Cn1ccc2c(Oc3cc(N4CCN(Cc5ccccc5-c5ccc(Cl)cc5)CC4)ccc3C(=O)NS(=O)(=O)c3ccc(NCCCN4CCOCC4)c([N+](=O)[O-])c3)cccc21 [Example 68, 4-(4-((4′-chloro-1,1′-biphenyl-2-yl)methyl)piperazin-1-yl)-2-((1-methyl-1H-indol-4-yl)oxy)-N-((4-((3-morpholin-4-ylpropyl)amino)-3-nitrophenyl)sulfonyl)benzamide]",5.93 nM
11,"CN1CCC(Nc2ccc(S(=O)(=O)NC(=O)c3ccc(N4CCN(CC5=C(c6ccc(Cl)cc6)CC(C)(C)CC5)CC4)cc3Oc3ccc(Cl)c(Cl)c3)cc2[N+](=O)[O-])CC1 [Example 164, 4-(4-{[2-(4-chlorophenyl)-4,4-dimethylcyclohex-1-en-1-yl]methyl}piperazin-1-yl)-2-(3,4-dichlorophenoxy)-N-({4-[(1-methylpiperidin-4-yl)amino]-3-nitrophenyl}sulfonyl)benzamide]",0.056 nM
12,"CC1(C)CCC(CN2CCN(c3ccc(C(=O)NS(=O)(=O)c4ccc(NCC5COCCO5)c([N+](=O)[O-])c4)c(Oc4cc5cc[nH]c5cc4Cl)c3)CC2)=C(c2ccc(Cl)cc2)C1 (centres unmarked) [Example 291, 2-[(6-chloro-1H-indol-5-yl)oxy]-4-(4-{[2-(4-chlorophenyl)-4,4-dimethylcyclohex-1-en-1-yl]methyl}piperazin-1-yl)-N-({4-[(1,4-dioxan-2-ylmethyl)amino]-3-nitrophenyl}sulfonyl)benzamide]",0.273 nM
13,"CC1(C)CCC(CN2CCN(c3ccc(C(=O)NS(=O)(=O)c4ccc(NCC5CCOCC5)c([N+](=O)[O-])c4)c(Oc4ccc(N)c(Cl)c4)c3)CC2)=C(c2ccc(Cl)cc2)C1 [Example 247, 2-(4-amino-3-chlorophenoxy)-4-(4-{[2-(4-chlorophenyl)-4,4-dimethylcyclohex-1-en-1-yl]methyl}piperazin-1-yl)-N-({3-nitro-4-[(tetrahydro-2H-pyran-4-ylmethyl)amino]phenyl}sulfonyl)benzamide]",0.039 nM
14,"CC1(C)CCC(CN2CCN(c3ccc(C(=O)NS(=O)(=O)c4ccc(NC5CCN(CCCc6ccccc6)CC5)c([N+](=O)[O-])c4)c(Oc4cccc(Cl)c4)c3)CC2)=C(c2ccc(Cl)cc2)C1 [Example 172, 2-(3-chlorophenoxy)-4-(4-{[2-(4-chlorophenyl)-4,4-dimethylcyclohex-1-en-1-yl]methyl}piperazin-1-yl)-N-[(3-nitro-4-{[1-(3-phenylpropyl)piperidin-4-yl]amino}phenyl)sulfonyl]benzamide]",0.549 nM
15,"CC1(C)CCC(CN2CCN(c3ccc(C(=O)NS(=O)(=O)c4ccc(NCC5CCOCC5)c([N+](=O)[O-])c4)c(Oc4cc5cc[nH]c5c(F)c4F)c3)CC2)=C(c2ccc(Cl)cc2)C1 [Example 243, 4-(4-{[2-(4-chlorophenyl)-4,4-dimethylcyclohex-1-en-1-yl]methyl}piperazin-1-yl)-2-[(6,7-difluoro-1H-indol-5-yl)oxy]-N-({3-nitro-4-[(tetrahydro-2H-pyran-4-ylmethyl)amino]phenyl}sulfonyl)benzamide]",0.069 nM
16,"CN(C)CCCNc1ccc(S(=O)(=O)NC(=O)c2ccc(N3CCN(Cc4ccccc4-c4ccc(Cl)cc4)CC3)cc2Oc2cccc(CO)c2)cc1[N+](=O)[O-] [Example 107, 4-(4-((4′-chloro-1,1′-biphenyl-2-yl)methyl)piperazin-1-yl)-N-((4-((3-(dimethylamino)propyl)amino)-3-nitrophenyl)sulfonyl)-2-(3-(hydroxymethyl)phenoxy)benzamide]",0.331 nM
17,"Cc1nc2cc(Oc3cc(N4CCN(Cc5ccccc5-c5ccc(Cl)cc5)CC4)ccc3C(=O)NS(=O)(=O)c3ccc(NCC4CCOCC4)c([N+](=O)[O-])c3)ccc2s1 [Example 90, 4-(4-((4′-chloro-1,1′-biphenyl-2-yl)methyl)piperazin-1-yl)-2-((2-methyl-1,3-benzothiazol-5-yl)oxy)-N-((3-nitro-4-((tetrahydro-2H-pyran-4-ylmethyl)amino)phenyl)sulfonyl)benzamide]",10.6 nM
18,"CN(C)CCCNc1ccc(S(=O)(=O)NC(=O)c2ccc(N3CCN(Cc4ccccc4-c4ccc(Cl)cc4)CC3)cc2Oc2cccc3c2ccn3C)cc1[N+](=O)[O-] [Example 16, 4-(4-((4′-chloro-1,1′-biphenyl-2-yl)methyl)piperazin-1-yl)-N-((4-((3-(dimethylamino)propyl)amino)-3-nitrophenyl)sulfonyl)-2-((1-methyl-1H-indol-4-yl)oxy)benzamide]",3.04 nM
19,"CC1(C)CCC(CN2CCN(c3ccc(C(=O)NS(=O)(=O)c4ccc(NCC5CCOCC5)c([N+](=O)[O-])c4)c(Oc4ccnc(N)c4)c3)CC2)=C(c2ccc(Cl)cc2)C1 [Example 282, 2-[(2-aminopyridin-4-yl)oxy]-4-(4-{[2-(4-chlorophenyl)-4,4-dimethylcyclohex-1-en-1-yl]methyl}piperazin-1-yl)-N-({3-nitro-4-[(tetrahydro-2H-pyran-4-ylmethyl)amino]phenyl}sulfonyl)benzamide]",1.01 nM
20,"2-(2-chlorophenoxy)-4-(4-{([2-(4-chlorophenyl)-4,4-dimethylcyclohex-1-en-1-yl]methyl}piperazin-1-yl)-N-({4-[(1,4-dimethylpiperidin-4-yl)amino]-3-nitrophenyl}sulfonyl)benzamide [Example 168]",28.3 nM
